From patent publication US8466131B2, “Ligands specific for cannabinoid receptor subtype 2” (University of Pittsburgh—of the Commonwealth System of …, priority 2007, dated 2013)
“Also recorded” adds a separate entry of the source.

Tests used:
[1] = biological target: T1, CB2 receptor (Homo sapiens, UniProt P34972); assay: forskolin-stimulated cAMP assay in CB2 receptor transfected CHO-K1 cells; assay type: cell-based; conditions: for effect on CB2 agonist WIN55,212-2 response (cAMP): 1 μM antagonist, with increasing WIN55,212-2, 30 min prior to forskolin (20 μM), FIG. 2; for functional mode of ligand alone (cAMP): ligand alone at increasing concentrations 30 min prior to forskolin (20 μM), FIG. 3
T1 construct: expressed in transfected cells; host or cells: CHO-K1
Method: FIG. 2. Confluentially growing CB2 receptor transfected […] CHO-K1 cells were stimulated with forskolin (20 μM) and analyzed for cAMP expression after 30 min. The CB2 agonist WIN55, 212-2 was incubated at increasing concentrations 30 min prior to forskolin stimulation alone or in presence of 1 μM of the antagonists AM630 and the compound of Formula II.
FIG. 3. Confluentially growing CB2 receptor transfected […] CHO-K1 cells were stimulated with forskolin (20 μM) and analyzed for cAMP expression after 30 minutes. CB2 ligands were incubated at increasing concentrations 30 minutes prior to forskolin stimulation.
Cell-based Functional Bioassay Studies. […] Subsequently, further receptor biological studies were performed: i) to examine/assess the G-protein effects of the compound of Formula II upon CB2 receptor binding and ii) to test the compound of Formula II for anti-inflammatory effects.

[2] = biological target: T2, CB2 cannabinoid receptor (Mus musculus, UniProt P47936); assay: [3H]-CP-55,940 radiometric competition binding assay, CB2 (mouse spleen membrane); conditions: displacement of 3H-CP 55940, mouse spleen membrane; read-out: CB2 binding affinity (Ki)
T2 construct: from tissue; host or cells: frozen mouse spleen membranes
Method: (§1) In-vitro Bio-validation Experiment. To biologically validate the screened hit compounds above, in-vitro [^3H]-radioactive CB ligand binding assays were carried out to determine the CB receptor binding affinity (Ki) of the screened ligands by displacing [^3H]-CP-55,940. The compound of Formula II was obtained from National Cancer Institute (NCI). For each assay, a positive control with a known ligand (SR-141716A for CB1 and SR-144528 for CB2) was run to ensure the reliability of the assay.
For CB2 receptor binding studies, membranes were prepared from frozen mouse spleen. […]
(§2) The experiments were conducted based on reported procedures. […] 1999, 1(3):article 4; Abadji et al., J. Med. Chem. 1994, 37(120:1889-1893; and Abadji et al., J. Neurochem. 1999, 72(5):2032-38. Thus, the competition binding assay was performed using [3H]-CP-55,940 (1 nM) as a radioligand for the CB1 or CB2 cannabinoid receptor (rate brain or mouse spleen membranes), at 30° C. in 96-well microtiter plates, 50 μg of membrane each well re-suspended in 200 μl (final volume) binding buffer (50 mM Tris-HCl, 2.5 mM EGTA, 3 mM MgCl2, 0.1% bovine serum albumin, pH 7.4). The tested compounds were presented at varying concentrations, and the nonspecific binding was determined in the presence of 10 μM CP-55,940 or HU-210. […] The Ki values were calculated by using GraphPad Prism 5.0 (GraphPad Software, Inc.).

[3] = biological target: T3, CB1 cannabinoid receptor (Rattus norvegicus, UniProt P20272); assay: [3H]-CP-55,940 radiometric competition binding assay, CB1 (rat forebrain membrane); conditions: displacement of 3H-CP 55940, rat forebrain membrane; read-out: CB1 binding affinity (Ki)
T3 construct: from tissue; host or cells: rat forebrain membranes
Method: as §1
For CB1 receptor binding studies, rat forebrain membranes were prepared following the reported procedures. […]
as §2

T1 sequence (P34972 whole entry): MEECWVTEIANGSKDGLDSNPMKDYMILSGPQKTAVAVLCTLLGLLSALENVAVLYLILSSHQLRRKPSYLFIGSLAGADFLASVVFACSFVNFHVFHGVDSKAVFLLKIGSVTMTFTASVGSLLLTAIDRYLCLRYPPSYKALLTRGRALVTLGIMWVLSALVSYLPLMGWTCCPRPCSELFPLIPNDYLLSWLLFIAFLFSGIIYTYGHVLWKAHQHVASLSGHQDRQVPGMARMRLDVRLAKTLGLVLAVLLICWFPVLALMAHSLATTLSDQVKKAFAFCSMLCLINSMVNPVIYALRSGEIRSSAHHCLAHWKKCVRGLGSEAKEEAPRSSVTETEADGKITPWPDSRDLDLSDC
T3 sequence (P20272 whole entry): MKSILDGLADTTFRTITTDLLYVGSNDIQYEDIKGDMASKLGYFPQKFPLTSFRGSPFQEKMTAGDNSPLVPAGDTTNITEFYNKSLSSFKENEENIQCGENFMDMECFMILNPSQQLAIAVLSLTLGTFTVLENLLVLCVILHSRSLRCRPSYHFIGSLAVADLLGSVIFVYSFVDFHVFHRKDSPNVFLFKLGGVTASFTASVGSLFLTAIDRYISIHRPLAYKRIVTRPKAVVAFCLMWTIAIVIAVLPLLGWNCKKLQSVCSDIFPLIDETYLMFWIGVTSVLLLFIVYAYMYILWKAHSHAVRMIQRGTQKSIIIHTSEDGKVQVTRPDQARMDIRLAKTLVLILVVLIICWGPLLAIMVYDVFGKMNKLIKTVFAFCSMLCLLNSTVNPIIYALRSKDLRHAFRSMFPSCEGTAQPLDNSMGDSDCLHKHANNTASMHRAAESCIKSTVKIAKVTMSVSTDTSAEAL
T2 sequence (P47936 whole entry): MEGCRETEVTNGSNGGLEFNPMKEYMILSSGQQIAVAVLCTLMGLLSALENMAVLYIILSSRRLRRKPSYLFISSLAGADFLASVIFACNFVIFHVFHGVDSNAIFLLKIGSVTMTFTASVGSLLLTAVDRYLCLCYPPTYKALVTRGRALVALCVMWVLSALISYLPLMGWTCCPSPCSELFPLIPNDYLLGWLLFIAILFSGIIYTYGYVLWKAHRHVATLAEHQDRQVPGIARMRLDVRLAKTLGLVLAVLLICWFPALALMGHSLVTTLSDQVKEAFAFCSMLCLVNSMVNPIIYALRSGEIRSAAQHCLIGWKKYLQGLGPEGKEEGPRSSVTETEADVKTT

Row | Compound | effect on CB2 agonist WIN55,212-2 response (cAMP) [1] | functional mode of ligand alone (cAMP) [1] | Ki [2] [nM] | Ki [3] [µM] | effect on Go signaling [1] | concentration at which compound becomes an agonist (cAMP) ([1]; FIG. 3, running text) [µM] | concentration at which compound is a weak agonist (cAMP) ([1]; FIG. 3 legend) [mM] | impact on Gi-proteins ([1]; at concentrations up to low μM)
1 | COc1ccc(C(=O)c2c(C)n(CCN3CCOCC3)c3cc(I)ccc23)cc1 [AM630, reference compound] | inhibits the effect of WIN55,212-2 | inverse agonist | – | – | – | – | – | –
2 | N/C(=N\Cc1ccccc1)C(/N=N/c1ccccc1)C(=O)NCc1ccccc1 (centres unmarked) [Formula II] | inhibits the effect of WIN55,212-2; also recorded: antagonist like the known CB2 antagonist AM630 (but weaker) | weak agonist at high concentration; also recorded: not an inverse agonist | 31.7 | 4.18 | does not affect Go signaling | ~10 | > 7 | does not have an impact on Gi-proteins
3 | SR144528 [reference compound] | – | inverse agonist | – | – | – | – | – | –
